In ChEMBL document CHEMBL1201862, “PubChem BioAssay data set” (2004):
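Values below derive from 48-hour exposures of cells grown in 96-well plates, with endpoints linearly interpolated between the two concentrations bracketing the appropriate inhibition level. GI50 is the concentration that inhibits growth by half.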 The source made the active and inactive calls. Rule as the data show it: active = GI50 up to about 1.1 µM and inactive = higher.

Assays:
Experiment in all cases: inhibition of tumour cell growth, NCI panel, 48 h
SK-MEL-2 = system: SK-MEL-2
DMS-273 = system: DMS-273
KM12 = system: KM12
SK-MEL-28 = system: SK-MEL-28
UACC-257 = system: UACC-257
HOP-62 = system: HOP-62
M19-MEL = system: M19-MEL
U-251 = system: U-251
OVCAR-8 = system: OVCAR-8
K562 = system: K562
CAKI-1 = system: CAKI-1
HCC 2998 = system: HCC 2998
A549 = system: A549
A498 = system: A498
HCT-116 = system: HCT-116
Malme-3M = system: Malme-3M
HT-29 = system: HT-29
NCI-H226 = system: NCI-H226
KM-20L2 = system: KM-20L2
LXFL 529 = system: LXFL 529
SF-268 = system: SF-268
M14 = system: M14
HCT-15 = system: HCT-15
MOLT-4 = system: MOLT-4
SW-620 = system: SW-620
HOP-18 = system: HOP-18
IGROV-1 = system: IGROV-1
DLD-1 = system: DLD-1
RXF 393 = system: RXF 393
SK-OV-3 = system: SK-OV-3
NCI-H522 = system: NCI-H522
EKVX = system: EKVX
RPMI-8226 = system: RPMI-8226
NCI-H23 = system: NCI-H23
NCI-H460 = system: NCI-H460
COLO 205 = system: COLO 205
SNB-19 = system: SNB-19
SF-539 = system: SF-539
SNB-75 = system: SNB-75
OVCAR-5 = system: OVCAR-5
SF-295 = system: SF-295
SNB-78 = system: SNB-78
OVCAR-3 = system: OVCAR-3
OVCAR-4 = system: OVCAR-4
HL-60 = system: HL-60
CCRF-CEM = system: CCRF-CEM
786-0 = system: 786-0
UACC-62 = system: UACC-62
TK-10 = system: TK-10
SK-MEL-5 = system: SK-MEL-5
XF498 = system: XF498
SN12C = system: SN12C
UO-31 = system: UO-31
ACHN = system: ACHN

## CC1(C)C(c2ccccc2)=NN(O)c2ccccc21
SK-MEL-2
  GI50: > 100 µM (inactive)
DMS-273
  GI50: > 100 µM (inactive)
KM12
  GI50: > 100 µM (inactive)
SK-MEL-28
  GI50: > 100 µM (inactive)
UACC-257
  GI50: > 100 µM (inactive)
HOP-62
  GI50: > 100 µM (inactive)
M19-MEL
  GI50: > 100 µM (inactive)
U-251
  GI50: > 100 µM (inactive)
OVCAR-8
  GI50: > 100 µM (inactive)
K562
  GI50: > 100 µM (inactive)
CAKI-1
  GI50: > 100 µM (inactive)
HCC 2998
  GI50: > 100 µM (inactive)
A549
  GI50: > 100 µM (inactive)
A498
  GI50: > 100 µM (inactive)
HCT-116
  GI50: > 100 µM (inactive)
Malme-3M
  GI50: > 100 µM (inactive)
HT-29
  GI50: > 100 µM (inactive)
NCI-H226
  GI50: > 100 µM (inactive)
KM-20L2
  GI50: > 100 µM (inactive)
LXFL 529
  GI50: > 100 µM (inactive)
SF-268
  GI50: > 100 µM (inactive)
M14
  GI50: > 100 µM (inactive)
HCT-15
  GI50: > 100 µM
MOLT-4
  GI50: > 100 µM (inactive)
SW-620
  GI50: > 100 µM (inactive)
HOP-18
  GI50: > 100 µM (inactive)
IGROV-1
  GI50: > 100 µM (inactive)
DLD-1
  GI50: > 100 µM (inactive)
RXF 393
  GI50: > 100 µM (inactive)
SK-OV-3
  GI50: > 100 µM (inactive)
NCI-H522
  GI50: > 100 µM (inactive)
EKVX
  GI50: > 100 µM (inactive)
RPMI-8226
  GI50: > 100 µM (inactive)
NCI-H23
  GI50: > 100 µM (inactive)
NCI-H460
  GI50: > 100 µM (inactive)
COLO 205
  GI50: > 100 µM (inactive)
SNB-19
  GI50: > 100 µM (inactive)
SF-539
  GI50: > 100 µM (inactive)
SNB-75
  GI50: 86.1 µM (inactive)
OVCAR-5
  GI50: > 100 µM (inactive)
SF-295
  GI50: > 100 µM (inactive)
SNB-78
  GI50: > 100 µM (inactive)
OVCAR-3
  GI50: > 100 µM (inactive)
OVCAR-4
  GI50: > 100 µM (inactive)
HL-60
  GI50: > 100 µM (inactive)
CCRF-CEM
  GI50: > 100 µM (inactive)
786-0
  GI50: > 100 µM (inactive)
UACC-62
  GI50: > 100 µM (inactive)
TK-10
  GI50: > 100 µM (inactive)
SK-MEL-5
  GI50: > 100 µM (inactive)

## Nc1ccccc1Nc1ccccc1C(=O)[O-].Nc1ccccc1Nc1ccccc1C(=O)[O-].[Zn+2]
SK-MEL-2
  GI50: 19.8 µM (inactive)
KM12
  GI50: > 100 µM (inactive)
SK-MEL-28
  GI50: > 100 µM (inactive)
UACC-257
  GI50: 33.7 µM (inactive)
HOP-62
  GI50: > 100 µM (inactive)
XF498
  GI50: 28.1 µM (inactive)
U-251
  GI50: > 100 µM (inactive)
OVCAR-8
  GI50: > 100 µM (inactive)
K562
  GI50: 62.4 µM (inactive)
CAKI-1
  GI50: > 100 µM (inactive)
HCC 2998
  GI50: > 100 µM (inactive)
A549
  GI50: > 100 µM (inactive)
A498
  GI50: > 100 µM (inactive)
HCT-116
  GI50: > 100 µM (inactive)
Malme-3M
  GI50: > 100 µM (inactive)
HT-29
  GI50: > 100 µM (inactive)
KM-20L2
  GI50: > 100 µM (inactive)
SF-268
  GI50: 45.6 µM (inactive)
M14
  GI50: 51.4 µM (inactive)
HCT-15
  GI50: > 100 µM
MOLT-4
  GI50: > 100 µM (inactive)
SW-620
  GI50: > 100 µM (inactive)
IGROV-1
  GI50: 40.6 µM (inactive)
SK-OV-3
  GI50: > 100 µM (inactive)
NCI-H522
  GI50: 19.7 µM (inactive)
EKVX
  GI50: > 100 µM (inactive)
SN12C
  GI50: > 100 µM (inactive)
RPMI-8226
  GI50: > 100 µM (inactive)
NCI-H23
  GI50: > 100 µM (inactive)
NCI-H460
  GI50: > 100 µM (inactive)
COLO 205
  GI50: > 100 µM (inactive)
SNB-19
  GI50: > 100 µM (inactive)
SF-539
  GI50: > 100 µM (inactive)
SNB-75
  GI50: 17.7 µM (inactive)
OVCAR-5
  GI50: > 100 µM (inactive)
SF-295
  GI50: 32.8 µM (inactive)
OVCAR-3
  GI50: 23.4 µM (inactive)
UO-31
  GI50: > 100 µM (inactive)
CCRF-CEM
  GI50: 33 µM (inactive)
786-0
  GI50: > 100 µM (inactive)
UACC-62
  GI50: 25.1 µM (inactive)
TK-10
  GI50: > 100 µM (inactive)
ACHN
  GI50: > 100 µM (inactive)
SK-MEL-5
  GI50: 91.4 µM (inactive)
